This passage reports AC50 results from PubChem BioAssay AID463199 (Broad Institute, 2010).

One may read the AC50 as the concentration at which the activity in the assay is half-maximal.

Each structure is given as a SMILES string. Active and inactive are the calls of the source.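 The calls were made as follows: active = AC50, the dose giving half-maximal effect, exceeds a fixed cutoff for a compound that rescues yeast growth under heat; inactive = the rest, inconclusive results apart.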 Where only a bound is given, the exact number is not on record here.

The subject of this test is S. cerevisiae Burl-1 ts mutant growth, BacTiter-Glo, 38.5C 24 h. The experiment in a line: restored growth of temperature-sensitive Burl-1 yeast – whole organism, S. cerevisiae, Burl-1 ts mutant, luminescence, counter-screen for SUMOylation pathway inhibitor project, dose response (AID 463199). On the technique in general: A counterscreen serves to expose hits that act by an unwanted route or on another target.
With `CC(=O)Nc1cccc(NC(=S)Nc2ccc(F)cc2F)c1`, the AC50 is > 42 µM (inactive). As to `COC(=O)C1CCN(S(=O)(=O)Cc2ccccc2)CC1`, the AC50 was > 42 µM (inactive). As for `COc1ccc(NC(=O)C2CCCN2S(=O)(=O)c2cccc3cccnc23)cc1OC` (centres undefined), the AC50 is > 42 µM (inactive). Take `Nc1nnc(CC(=O)N2CCCCC2)s1`: the AC50 is > 42 µM (inactive). As to `COc1ccc(OCC(O)CN2C(=O)NC(C)(C)C2=O)cc1` (centres undefined), the AC50 is > 42 µM (inactive). Take `Cc1ccccc1NC(=O)c1ccccc1NC(=O)c1ccco1`: the AC50 is > 42 µM (inactive). Consider `CCc1ccccc1NC(=S)NNC(=O)c1ccccc1Cl`, for which the AC50 was > 42 µM (inactive). With `Cc1ccc2c(c1)N(CC(=O)NCC1CCCO1)C(=O)C(C)O2` (centres undefined), the AC50 is > 42 µM (inactive).

`O=C(CCNS(=O)(=O)c1cccc2nsnc12)NCCC1=CCCCC1`: the AC50 was > 42 µM (inactive). The result for `CCc1ccc2nc(-c3cccc(C)c3)nc(SCC(=O)NCC3CCCO3)c2c1` (centres undefined) reads > 42 µM (inactive).

Regarding `O=C(Nc1ccc2c(c1)oc1ccccc12)C1CC1`, the AC50 was > 42 µM (inactive). As to `OC[C@@H](O)CCl`, the AC50 is > 42 µM (inactive). The result for `CC1CCCC(C)N1C(=O)CSc1nnnn1-c1cccc2c1CCCC2` (centres undefined) reads > 42 µM (inactive); that for `C=CCOC(=O)C(C#N)c1nc2ccccc2nc1N1CCN(Cc2ccccc2)CC1` (centres undefined), > 42 µM (inactive); that for `Oc1c(Br)cc(Cl)cc1C=Nc1ccccc1Br`, > 42 µM (inactive). To `CC(C)C/C(=N/O)c1c[nH]c2ccccc12` belongs > 42 µM (inactive); to `O=C(Nc1cnn(Cc2ccc(Cl)cc2)c1)c1ccc([N+](=O)[O-])cc1`, > 42 µM (inactive); to `O=C(N/N=C\c1cn(-c2ccccc2)nc1-c1ccccc1)c1ccc(Br)o1`, > 42 µM (inactive). Turning to `O=C(Nc1ccc(Cl)cc1)C1=Cc2ccccc2OC1`, the AC50 is > 42 µM (inactive).

Consider `COc1ccc(C2CC3(CC(C)(C)NC(=S)N3)Oc3cc(O)cc(C)c32)cc1` (centres undefined), for which the AC50 is > 42 µM (inactive). The result for `O=S(=O)(NCc1cccc(C(F)(F)F)c1)NCc1ccccc1F` reads > 42 µM (inactive); that for `COc1ccc(NC2CCCN(C(=O)CCc3scnc3C)C2)cc1` (centres undefined), > 42 µM (inactive). As for `CCN(CC)C(=O)C1CCCN(c2ccc([N+](=O)[O-])cc2/C=N/NC(=O)c2cccc(Br)c2)C1` (centres undefined), the AC50 was > 42 µM (inactive). On to `CCn1nccc1C(=O)Nc1ccccc1OC`, for which the AC50 is > 42 µM (inactive). As to `O=C(COC(=O)C1COc2ccccc2O1)NC1CCS(=O)(=O)C1` (centres undefined), the AC50 was > 42 µM (inactive).

For the compound `O=C(CSc1nc2ncccc2[nH]1)NC1CCCCC1`, the AC50 was > 42 µM (inactive). The result for `COc1cc(CNCc2ccc3c(c2)OCO3)c([N+](=O)[O-])cc1OC` reads > 42 µM (inactive). With `CCCCn1c(SCC(=O)Nc2cc(C)on2)nnc1-c1ccco1`, the AC50 is > 42 µM (inactive).

On to `N#Cc1ccc(/C=C/C(=O)c2ccco2)cc1`, for which the AC50 was > 42 µM (inactive). As for `Cc1c(NC(=O)C(C)Sc2nnc(-c3ccccc3)o2)c(=O)n(-c2ccccc2)n1C` (centres undefined), the AC50 was > 42 µM (inactive). As for `COc1ccc(NC(=O)C2CCN(c3cc(C)nc(-c4ccccc4)n3)CC2)cc1`, the AC50 is > 42 µM (inactive). To `COC(=O)c1cc2c(s1)-c1ccc(OC)cc1CC2` belongs > 42 µM (inactive). Consider `Nn1c(SCc2cc([N+](=O)[O-])cc3c2OCOC3)nnc1-c1ccccn1`, for which the AC50 was > 42 µM (inactive).

For the compound `O=C(NCc1ccco1)c1ccc(Br)c(S(=O)(=O)N2CCCCC2)c1`, the AC50 was > 42 µM (inactive).

As to `CCCc1ccccc1OCCNC(C)=O`, the AC50 is > 42 µM (inactive).

As for `O=C(Nc1cccc(Cl)c1)OCc1cncs1`, the AC50 is > 42 µM (inactive). For the compound `Cc1ccccc1CSc1n[nH]c(NS(=O)(=O)c2ccccc2)n1`, the AC50 is > 21 µM (inactive).

With `COc1ccc(CN2CCN(C(=O)c3cc(-c4cccnc4)nc4ccc(Cl)cc34)CC2)c(OC)c1OC`, the AC50 is > 42 µM (inactive). On to `O=C(c1cnn2c(C(F)(F)F)cc(-c3ccco3)nc12)N1CCCc2ccccc21`, for which the AC50 is > 42 µM (inactive).

As to `COC(=O)C1CN(C#N)N(c2ccc(Cl)cc2)C12c1ccccc1-c1ccccc12` (centres undefined), the AC50 was > 42 µM (inactive). For `CC(C)(C)C(=O)Nc1ccc(C(=O)NCc2cccnc2)cc1`, the AC50 was > 42 µM (inactive). As for `CCN(C(=O)Nc1ccccc1OC)c1c(N)n(Cc2ccccc2)c(=O)[nH]c1=O`, the AC50 is > 42 µM (inactive).

On to `Cc1cccc(NC(=S)NCc2ccco2)c1C`, for which the AC50 is > 42 µM (inactive). On to `O=C(NC1CCCCC1)c1n[nH]c2c1CCCCC2`, for which the AC50 is > 42 µM (inactive). To `Cc1ccc2nc(SCC(=O)Nc3cccc(S(N)(=O)=O)c3)[nH]c2c1` belongs > 42 µM (inactive). The result for `CC(C)c1ccc(-c2cc(C(=O)N3CCOCC3)c3cc(Br)ccc3n2)cc1` reads > 42 µM (inactive); that for `COc1ccccc1C(=O)NCCNc1ccc([N+](=O)[O-])cc1Cl`, > 42 µM (inactive); that for `O=C(Nc1ccc(F)cc1)c1cccnn1`, > 42 µM (inactive). For `Cc1ccnc(NC(=O)CNC(=O)c2ccc(Br)o2)c1`, the AC50 is > 42 µM (inactive). In the case of `CCNc1ccccc(C(=O)/C=C/c2ccc3c(c2)OCO3)c1=O`, the AC50 is > 42 µM (inactive). `Cc1c(C(=O)Nc2cccc(F)c2)cnn1-c1ccccc1`: the AC50 was > 42 µM (inactive). In the case of `COC(=O)C1=C(C)NC(C)=C([N+](=O)[O-])C1c1ccccc1C(F)(F)F` (centres undefined), the AC50 is > 42 µM (inactive). Take `O=C(/C=C/c1ccc(Cl)cc1Cl)Nc1cccc(S(=O)(=O)NC2=NCCCCC2)c1`: the AC50 was > 42 µM (inactive). On to `Cn1c(Cn2nnc3ccccc32)nnc1SCC(=O)c1ccc(F)cc1`, for which the AC50 is > 42 µM (inactive). To `COc1cc(C(=O)COC(=O)c2cc([N+](=O)[O-])ccc2N2CCOCC2)ccc1OC(F)F` belongs > 42 µM (inactive). Regarding `N/C(=N\N=C\c1ccc(O)cc1)c1nonc1N`, the AC50 was > 42 µM (inactive). For the compound `O=C(Nc1ccc2ccccc2c1)N1CCCN(CCOc2ccccc2)CC1`, the AC50 is > 42 µM (inactive).

With `COc1ccc(NC(=O)COc2cc(C)cc(C)c2)cc1S(=O)(=O)N1CCCCC1`, the AC50 is > 42 µM (inactive).

Regarding `O=C(NC1CCc2ccccc21)c1cc(COc2ccc(F)cc2F)on1` (centres undefined), the AC50 was > 42 µM (inactive).

In the case of `COC(=O)[C@@H]1C[C@@H]2CC[C@@H](O)C[C@@H]2N1Cc1ccc(N2CCN(C)CC2)cc1`, the AC50 is > 42 µM (inactive).

With `C=CCNC(=O)NC(=O)COC(=O)CCCSc1nc2ccccc2[nH]1`, the AC50 is > 42 µM (inactive). Turning to `Cc1ccc(NC(=O)Cn2sc3nc(C)cc(C)c3c2=O)c(Cl)c1`, the AC50 was > 42 µM (inactive). For the compound `O=C(COc1ncnc2c(Cl)cc(Cl)cc12)NCCC1=CCCCC1`, the AC50 was > 42 µM (inactive).

`CN(C)S(=O)(=O)N1CCc2ccccc2C1`: the AC50 was > 42 µM (inactive). Turning to `CCOC(=O)C1C(c2ccc(C)o2)NC(=O)NC1(O)C(F)(F)F` (centres undefined), the AC50 was > 42 µM (inactive). Regarding `Cc1ccc(S(=O)(=O)N(C)c2ccc(OC(=O)CN3C(=O)NC4(CCCC4)C3=O)cc2)cc1C`, the AC50 was > 42 µM (inactive).

Take `COc1ccc(/C=C/C(=O)NC(=S)Nc2ccccn2)cc1`: the AC50 was > 42 µM (inactive).

With `CCOC(=O)c1cnc2ccc(Cl)cc2c1N1CCN(C)CC1`, the AC50 was > 42 µM (inactive).

In the case of `O=C(c1cc(N2C(=O)C3C4CCC(C4)C3C2=O)ccc1Cl)N1CCCCCC1` (centres undefined), the AC50 was > 42 µM (inactive). To `O=C(N/N=C/c1cccc([N+](=O)[O-])c1)C1COc2ccccc2O1` (centres undefined) belongs > 42 µM (inactive).

As for `COc1ccc2c(c1)OC[C@H]1[C@H]2N2C(=O)c3cc(OC)c(OC)cc3NC(=O)[C@@]2(C)[C@H]1c1ccccc1`, the AC50 was > 42 µM (inactive). For the compound `Cc1ccc(CN(C)C(=O)c2ccc3c(c2)NC(=O)CS3)o1`, the AC50 is > 42 µM (inactive). `O=C1C2CC=C(Cl)CC2C(=O)N1c1ncn[nH]1` (centres undefined): the AC50 is > 42 µM (inactive). For `c1ccc2[nH]c(CSc3nccs3)nc2c1`, the AC50 is > 42 µM (inactive). Consider `COc1nc(-c2ccccc2)ccc1-c1noc(-c2ccccc2)n1`, for which the AC50 was > 42 µM (inactive).

As for `COC(=O)c1cccc(NC(=O)c2cccnc2)c1`, the AC50 was > 42 µM (inactive). Turning to `CCOC(=O)COc1nc(-c2ccc(C)cc2)cc(-c2ccco2)c1C#N`, the AC50 was > 42 µM (inactive). On to `CCOc1c(Cl)cc(CNCC(O)c2ccccc2)cc1OC` (centres undefined), for which the AC50 was > 42 µM (inactive). As to `O=C(Nc1ccc2oc(-c3ccccc3F)nc2c1)c1ncn[nH]1`, the AC50 was > 42 µM (inactive). To `COC(=O)c1cccc(NC(=O)c2ccc[n+]([O-])c2)c1` belongs > 42 µM (inactive). `COc1ccc(NC(=O)CN(C)C(=O)c2cc(C)on2)cc1`: the AC50 is > 42 µM (inactive). In the case of `CCOC(=O)C1CCN(CC(O)COc2ccc(C(C)(C)C)cc2)CC1` (centres undefined), the AC50 was > 42 µM (inactive). For `CCOP(=O)(OCC)C(NC(=O)c1cccc([N+](=O)[O-])c1)C(Cl)(Cl)Cl` (centres undefined), the AC50 was > 42 µM (inactive).

In the case of `CC1(C)CCC(=O)N2CC[C@H]3C[C@H](OC(=O)Nc4ccc(Br)cc4)C[C@@H]1[C@H]32`, the AC50 was > 42 µM (inactive). As to `CCN(CC)C(=O)Cn1c(=O)n(CCCC(=O)NCc2ccccc2)c(=O)c2sccc21`, the AC50 is > 42 µM (inactive). To `O=C(COc1cccnc1[N+](=O)[O-])Nc1ccc2c(c1)CCC2` belongs > 21 µM (inactive); to `S=C(Nc1ccc(Cl)cc1)N1CCN(Cc2ccccc2)CC1`, > 42 µM (inactive). With `CN1C(C(=O)Nc2ccccn2)=C(O)c2sccc2S1(=O)=O`, the AC50 is > 42 µM (inactive). For the compound `O=C(Nc1ccsc1C(=O)O)c1cccc(C(F)(F)F)c1`, the AC50 was > 42 µM (inactive).
